Test results as given in US8410161B2, “Thioxanthone ring system derivatives” (National Defense Medical Center, priority 2010, dated 2013).

Assays:
Type in all cases: cell-based
A3 cell lines = experiment: MTT assay, A3 cell lines (lung cancer stem cell)
Excerpt: Please to FIG. 4B, various cell viabilities of the A3 cell lines can be obtained through the MTT assay and illustrated in FIG. 4B while the compounds No. 1˜30 are used to treat A3 cell lines, wherein A3 cell lines are lung cancer stem cell.

A control cell lines = experiment: MTT assay, A control cell lines (lung cancer cell)
Excerpt: Please refer to Table 1 and FIGS. 4A-4C. According to a MTT assay (Table 1), various cell viabilities of the A control cell lines can be obtained and illustrated in FIG. 4A while the compounds No. 2˜30 are used to treat A control cell lines, wherein A control cell lines are lung cancer cell.

HEL299 fibroblast = experiment: MTT assay, HEL299 fibroblast
Excerpt: (§1) Please refer to FIG. 4C, various cell viabilities of the HEL299 cell lines can be obtained through the MTT assay while the compounds No. 1˜30 are used to treat HEL299 cell lines, wherein HEL299 cell lines are fibroblast.

[1] = MTT assay, HEL299 fibroblast; settings: human
Excerpt: as §1

Structure (SMILES): Cc1cc(C)c(CSc2ccc3c(=O)c4ccccc4sc3c2Cl)c(C)c1 [No. 28, 4-Chloro-3-(2,4,6-trimethylbenzylthio)-9H-thioxanthen-9-one]
- cell viabilities of A3 cell lines (MTT assay) (A3 cell lines): 98.3 ± 2.25%
- cell viabilities of A control cell lines (MTT assay) (A control cell lines): 52.9%
- inhibition effect on A control cell line (in words) (A control cell lines; summary of MTT cell viabilities): inhibition effect
- cytotoxicity effect on the normal fibroblast (in words) (HEL299 fibroblast): without the cytotoxicity effect
- viability [1]: 91.2%
